Results from ChEMBL document CHEMBL3421596, “A facile synthesis and microtubule-destabilizing properties of 4-(1H-benzo[d]imidazol-2-yl)-furazan-3-amines” (Eur J Med Chem, 2015).
The source made the active and inactive calls. The rule behind the calls is not given here.

Columns and labels:
[1] = Cytotoxicity against human HCT116 cells; type: functional; conditions: HCT-116
[2] = Cytotoxicity against human HCT15 cells; type: functional; conditions: HCT-15
HT-29 = experiment: Cytotoxicity against human HT-29 cells; type: functional
KM12 = experiment: Cytotoxicity against human KM12 cells; type: functional
SW-620 = experiment: Cytotoxicity against human SW620 cells; type: functional
SF-268 = experiment: Cytotoxicity against human SF268 cells; type: functional
SF-539 = experiment: Cytotoxicity against human SF539 cells; type: functional; conditions: read-out: pGI50 (converted)
SNB-19 = experiment: Cytotoxicity against human SNB19 cells; type: functional
U-251 = experiment: Cytotoxicity against human U251 cells; type: functional
LOX IMVI = experiment: Cytotoxicity against human LOXIMVI cells; type: functional
Malme-3M = experiment: Cytotoxicity against human MALME-3M cells; type: functional
M14 = experiment: Cytotoxicity against human M14 cells; type: functional
MDA-MB-435 = experiment: Cytotoxicity against human MDA-MB-435 cells; type: functional; conditions: read-out: pGI50 (converted)
SK-MEL-2 = experiment: Cytotoxicity against human SK-MEL-2 cells; type: functional
SK-MEL-28 = experiment: Cytotoxicity against human SK-MEL-28 cells; type: functional
SK-MEL-5 = experiment: Cytotoxicity against human SK-MEL-5 cells; type: functional
[3] = Cytotoxicity against human UACC257 cells; type: functional; conditions: UACC-257
[4] = Cytotoxicity against human UACC62 cells; type: functional; conditions: UACC-62
IGROV-1 = experiment: Cytotoxicity against human IGROV1 cells; type: functional
[5] = Cytotoxicity against human OVCAR3 cells; type: functional; conditions: OVCAR-3, read-out: pGI50 (converted)
[6] = Cytotoxicity against human OVCAR4 cells; type: functional; conditions: OVCAR-4
[7] = Cytotoxicity against human OVCAR5 cells; type: functional; conditions: OVCAR-5
[8] = Cytotoxicity against human OVCAR8 cells; type: functional; conditions: OVCAR-8, read-out: pGI50 (converted)
[9] = Cytotoxicity against human NCI-ADR-RES cells; type: functional; conditions: read-out: pGI50 (converted)
[10] = Cytotoxicity against human SKOV3 cells; type: functional; conditions: SK-OV-3
786-0 = experiment: Cytotoxicity against human 786-0 cells; type: functional
A498 = experiment: Cytotoxicity against human A498 cells; type: functional
ACHN = experiment: Cytotoxicity against human ACHN cells; type: functional
RXF 393 = experiment: Cytotoxicity against human RXF393 cells; type: functional; conditions: read-out: pGI50 (converted)
SN12C = experiment: Cytotoxicity against human SN12C cells; type: functional
TK-10 = experiment: Cytotoxicity against human TK10 cells; type: functional
[11] = Cytotoxicity against human UO31 cells; type: functional; conditions: UO-31
[12] = Cytotoxicity against human PC3 cells; type: functional; conditions: PC-3
DU-145 = experiment: Cytotoxicity against human DU145 cells; type: functional
MCF7 = experiment: Cytotoxicity against human MCF7 cells; type: functional
MDA-MB-231 = experiment: Cytotoxicity against human MDA-MB-231 cells; type: functional
[13] = Cytotoxicity against human Hs578T cells; type: functional; conditions: Hs-578T
BT-549 = experiment: Cytotoxicity against human BT549 cells; type: functional
T47D = experiment: Cytotoxicity against human T47D cells; type: functional
MDA-MB-468 = experiment: Cytotoxicity against human MDA-MB-468 cells; type: functional
SF-295 = experiment: Cytotoxicity against human SF295 cells; type: functional
SNB-75 = experiment: Cytotoxicity against human SNB75 cells; type: functional
HOP-92 = experiment: Cytotoxicity against human HOP92 cells; type: functional
Paracentrotus lividus [14] = experiment: Antiproliferative activity in sea urchin embryo assessed as antimitotic activity by measuring cleavage alteration exposed for 8 to 20 mins after fertilization and 45 to 55 mins before first mitotic cycle completion measured 2.5 to […] after fertilization; type: functional
Paracentrotus lividus [15] = experiment: Antiproliferative activity in sea urchin embryo assessed as antimitotic activity by measuring cleavage arrest exposed for 8 to 20 mins after fertilization and 45 to 55 mins before first mitotic cycle completion measured 2.5 to […] after fertilization; type: functional
Paracentrotus lividus [16] = experiment: Antiproliferative activity in sea urchin embryo assessed as destabilization of microtubule by measuring embryo spinning after 15 mins to 20 hrs; type: functional
Paracentrotus lividus [17] = experiment: Antiproliferative activity in sea urchin embryo assessed as destabilization of microtubule by tuberculate eggs after 15 mins to 20 hrs; type: functional, organism-based
[18] = Cytotoxicity against human NCI60 cells; type: functional
CCRF-CEM = experiment: Cytotoxicity against human CCRF-CEM cells; type: functional
HL-60(TB) = experiment: Cytotoxicity against human HL-60(TB) cells; type: functional
K562 = experiment: Cytotoxicity against human K562 cells; type: functional
MOLT-4 = experiment: Cytotoxicity against human MOLT4 cells; type: functional
RPMI-8226 = experiment: Cytotoxicity against human RPMI8226 cells; type: functional
SR = experiment: Cytotoxicity against human SR cells; type: functional
A549 = experiment: Cytotoxicity against human A549 cells; type: functional
HOP-62 = experiment: Cytotoxicity against human HOP62 cells; type: functional
NCI-H226 = experiment: Cytotoxicity against human NCI-H226 cells; type: functional
NCI-H23 = experiment: Cytotoxicity against human NCI-H23 cells; type: functional
NCI-H322M = experiment: Cytotoxicity against human NCI-H322M cells; type: functional
NCI-H460 = experiment: Cytotoxicity against human NCI-H460 cells; type: functional
NCI-H522 = experiment: Cytotoxicity against human NCI-H522 cells; type: functional
COLO 205 = experiment: Cytotoxicity against human COLO205 cells; type: functional
HCC 2998 = experiment: Cytotoxicity against human HCC2998 cells; type: functional

COc1cc(Cn2c(-c3nonc3N)nc3ccccc32)ccc1C
GI50 [1]: 513 nM
GI50 [2]: 457 nM
GI50 (HT-29): 363 nM
GI50 (KM12): 437 nM
GI50 (SW-620): 331 nM
GI50 (SF-268): 776 nM
GI50 (SF-539): 200 nM
GI50 (SNB-19): 724 nM
GI50 (U-251): 537 nM
GI50 (LOX IMVI): 661 nM
GI50 (Malme-3M): 525 nM
GI50 (M14): 550 nM
GI50 (MDA-MB-435): 170 nM
GI50 (SK-MEL-2): 407 nM
GI50 (SK-MEL-28): 794 nM
GI50 (SK-MEL-5): 372 nM
GI50 [3]: 417 nM
GI50 [4]: 617 nM
GI50 (IGROV-1): 724 nM
GI50 [5]: 309 nM
GI50 [6]: 646 nM
GI50 [7]: 776 nM
GI50 [8]: 759 nM
GI50 [9]: 389 nM
GI50 [10]: 537 nM
GI50 (786-0): 646 nM
GI50 (A498): 89.1 nM
GI50 (ACHN): 724 nM
GI50 (RXF 393): 269 nM
GI50 (SN12C): 676 nM
GI50 (TK-10): 1410 nM
GI50 [11]: 575 nM
GI50 [12]: 339 nM
GI50 (DU-145): 513 nM
GI50 (MCF7): 389 nM
GI50 (MDA-MB-231): 1450 nM
GI50 [13]: 288 nM
GI50 (BT-549): 513 nM
GI50 (T47D): 575 nM
GI50 (MDA-MB-468): 229 nM
GI50 (SF-295): 389 nM
GI50 (SNB-75): 263 nM
GI50 (HOP-92): 363 nM
EC (Paracentrotus lividus [14]): 0.2 µM
EC (Paracentrotus lividus [15]): 2 µM
EC (Paracentrotus lividus [16]): >4 µM
Activity (Paracentrotus lividus [17]): Active
GI50 [18]: 479 nM
GI50 (CCRF-CEM): 380 nM
GI50 (HL-60(TB)): 275 nM
GI50 (K562): 389 nM
GI50 (MOLT-4): 646 nM
GI50 (RPMI-8226): 447 nM
GI50 (SR): 389 nM
GI50 (A549): 562 nM
GI50 (HOP-62): 617 nM
GI50 (NCI-H226): 955 nM
GI50 (NCI-H23): 1150 nM
GI50 (NCI-H322M): 537 nM
GI50 (NCI-H460): 355 nM
GI50 (NCI-H522): 251 nM
GI50 (COLO 205): 372 nM
GI50 (HCC 2998): 1450 nM
